Test results: paper PMC10283044, “Structure–Activity Relationship of Lower Chlorinated Biphenyls and Their Human-Relevant Metabolites for Astrocyte Toxicity” (Chemical Research in Toxicology, 2023)
Structures can show the parent of a compound that is named as a salt. Where two headings read alike, the source gives them in different places.

Legend:
C6 cells = assay: MTT cell viability assay in C6 cells; assay type: cell-based; details: 0.5 to 50 μM; for toxicity (cell viability) in the tested concentration range: C6 cells, 24 h; for IC50: Rattus norvegicus, C6 cell line, 24 h exposure
Experimental: C6 cells (CCL-107, Lot No. 63821786) were purchased from the American Type Culture Collection (ATCC, Manassas, VA, U.S.A.). This cell line has been previously used as an in vitro astrocyte model for toxicity[22] and is morphologically and functionally similar to primary astrocyte cultures.[34] The C6 cells were grown and maintained at 37 °C under humidified conditions at 5% CO2 in DMEM/F12 medium supplemented with 10% FBS and 1% P/S. The cells were maintained at a seeding density of 1 × 10^6 cells in 100 mm tissue culture-treated dishes (Cat. No. 430167, Corning, Somerville, MA, U.S.A.). All the experiments for the current study utilizing C6 cells have been performed within passage 2 and passage 20.
(§1) All the LC-PCB exposures or their corresponding human-relevant metabolite exposures were performed in serum-free, phenol-red-free cell culture media suited for the respective cell type described above. The exposures were within a concentration range of 0.5–50 μM for 24 h at 37 °C under humidified conditions at 5% CO2. DMSO was used as a negative control. All stock solutions of the test compounds were prepared in DMSO. The final DMSO concentration was maintained at <0.5% for all the exposures. After the 24 h incubation, either an MTT assay for cell viability or an LDH assay for cytotoxicity was employed.
(§2) C6 or primary cells were seeded in 24-well cell culture plates (Corning Inc., Corning, NY, U.S.A; Cat No. 3526) and allowed to grow until 80–90% confluent. The cells were then exposed to test compounds, as described above (0, 0.5, 1, 5, 10, 20, and 50 μM). The MTT assay was performed, as described[38] with modifications. After 24 h of exposure, the media was removed, and cells were washed with HBSS once. Two hundred microliters of 0.5 mg/mL MTT solution prepared in HBSS/Glucose (Glucose used at 1 mg/mL HBSS) was added to each well of the 24-well plate. The cells were incubated with the MTT solution for 45 min to 1 h at 37 °C under humidified conditions at 5% CO2. After incubation, the MTT solution was removed, and the water-insoluble purple formazan product was dissolved in 400 μL DMSO. This DMSO solution was added to a clear, flat bottom 96-well polystyrene plate (Cat. No. 12-565-501, Thermo Fisher Scientific, Waltham, MA. U.S.A.) in duplicate and read at 570 and 650 nm using a microplate reader (SpectraMax 190, Molecular Devices, San Jose, CA. U.S.A.). The mean percent cell viability was calculated as follows: [drawing 1]

rat primary astrocytes = assay: MTT cell viability assay in rat primary astrocytes; assay type: cell-based, Sprague-Dawley rat; details: 24 h
Excerpt: Sprague-Dawley male and female rats were utilized to obtain cultures of sex-specific primary cortical cells. All animal experiments were approved by the Institutional Animal Care and Uses Committee (IACUC) at the University of Iowa. The rat pups were sex-segregated as males and females based on visual examination and later confirmed by the presence of a Y chromosome-specific gene Sry by PCR. The gene for beta-actin, Actb, was used as a control. The primer sequences used for PCR amplification were as described,[35] which yielded a 317-bp product for Sry and a 220-bp product for Actb. Both products were confirmed by gel electrophoresis on a 1% agarose gel after PCR amplification was completed. As previously described, with modifications, astrocytes were obtained from the cortex of PND2/3 rats.[36] Briefly, cortical sections were dissociated in minimal essential medium with Earle’s salts for suspension cultures (S-MEM; Life Technologies) with 1% penicillin/streptomycin and 1.5 U/mL dispase (Life Technologies) for 60 min, aliquoting and replacing dissociation media every 10 min, adding 8000 U/mL DNase I in water after the first digestion. The enzymatic digestion was stopped by adding a growth medium containing minimal essential medium with Earle’s salts (MEM; Life Technologies) with 1% P/S and 10% heat-inactivated horse serum. After digestion, cells were centrifuged for 10 min at 1000 × g at 4 °C, and the pellet was resuspended in a growth medium. Cells were assessed for count and viability and then plated at 10,000 viable cells/cm^2 in T75 flasks. Flasks were shaken after 24 h, and media was replaced to begin removing microglia and then repeated every 2–3 days. Flow cytometry utilizing GFAP and IBA1 antibodies was run at passage 2 to confirm the elimination of microglia from the primary astrocyte cultures. The rat primary astrocyte cultures were maintained in MEM with 1% P/S and 10% heat-inactivated horse serum at 37 °C under humidified conditions at 5% CO2. The detailed protocol for astrocyte isolation of sex segregated rat pups and further validation of purity of astrocyte cultures is published and can be accessed at: dx.doi.org/10.17504/protocols.io.e6nvwjry7lmk/v1.
as §1, §2

[1] = MTT cell viability assay in mouse primary glial cells; assay type: cell-based, C57BL/6 mouse; details: mouse, primary mixed glial cells, MTT, primary glial cells from C57BL/6 mice
Experimental: (§3) Primary glial cell cultures obtained from PND1-3 C57BL/6 mice pups were provided by Dr. Tjalkens at Colorado State University, Fort Collins, CO, U.S.A. The primary astroglial cell cultures were grown and maintained, as described previously in MEM medium supplemented with 10% FBS and 1% P/S.[37]
as §1, §2

[2] = system: mouse primary mixed glial cells; assay: as above; assay type: cell-based, C57BL/6 mouse; details: Glial cell; mouse primary mixed glial cells (about 80% astrocytes, 20% microglia), MTT assay, 24 h
Experimental: as §3, §1, §2

[3] = read-out: sulfated metabolite IC50
[4] = Astrocyte, sex segregated rat primary astrocytes, female, read-out: IC50 females
[5] = Astrocyte, sex segregated rat primary astrocytes, male, read-out: IC50 males
[6] = read-out: hydroxylated metabolite IC50

Clc1ccc(-c2ccccc2)cc1 [PCB3, 4-chlorobiphenyl]
toxicity (cell viability) in the tested concentration range (C6 cells): non-toxic
IC50 (C6 cells; read-out: parent compound IC50): > 50 µM

O=S(=O)(O)Oc1cc(Cl)c(-c2cc(Cl)ccc2Cl)cc1Cl [4-OH-PCB52 sulfate]
toxicity (cell viability) in the tested concentration range (C6 cells): reduced cell viability
IC50 (C6 cells; [3]): 8.4 µM
IC50 (rat primary astrocytes; [4]): 6.9 µM
IC50 (rat primary astrocytes; [5]): 7 µM
viability at 24 h, 5 µM [1]: > 150%
viability at 24 h, 10 μM ([1]; next higher concentration after 5 μM): 20%

Oc1ccc(-c2ccc(Cl)cc2)cc1 [PCB 3 hydroxylated metabolite]
IC50 (C6 cells; [6]): 21.4 µM

O=S(=O)(O)Oc1ccc(-c2ccc(Cl)cc2Cl)cc1Cl [PCB 25 sulfated metabolite]
IC50 (C6 cells; [3]): > 50 µM

Oc1ccc(-c2ccc(Cl)cc2Cl)cc1Cl [PCB 25 hydroxylated metabolite]
IC50 (C6 cells; [6]): 5.3 µM

Clc1ccc(-c2ccc(Cl)cc2Cl)cc1 [PCB28, 2,4,4′-trichlorobiphenyl]
IC50 (C6 cells; read-out: parent compound IC50): ~25 µM

Oc1ccc(-c2cccc(Cl)c2)cc1Cl [PCB 11 hydroxylated metabolite]
IC50 (C6 cells; [6]): 13 µM

Clc1ccc(Cl)c(-c2cc(Cl)ccc2Cl)c1 [PCB52, 2,2′,5,5′-tetrachlorobiphenyl]
IC50 (C6 cells; read-out: parent compound IC50): 8.8 µM
IC50 (rat primary astrocytes; [4]): 14.4 µM
IC50 (rat primary astrocytes; [5]): 15.3 µM
IC50 (rat primary astrocytes; mixed rat primary astrocyte cultures (>95% astrocytes), read-out: IC50): 11.8 µM
IC50 [2]: 9.8 µM

Clc1cccc(-c2cccc(Cl)c2)c1 [PCB11, 3,3′-dichlorobiphenyl]
toxicity (cell viability) in the tested concentration range (C6 cells): non-toxic
IC50 (C6 cells; read-out: parent compound IC50): > 50 µM

Clc1cccc(-c2ccc(Cl)cc2Cl)c1 [PCB25, 2,3′,4-trichlorobiphenyl]
IC50 (C6 cells; read-out: parent compound IC50): 10 µM

O=S(=O)(O)Oc1ccc(-c2ccc(Cl)cc2)cc1 [PCB 3 sulfated metabolite]
IC50 (C6 cells; [3]): > 50 µM

Oc1cc(Cl)c(-c2cc(Cl)ccc2Cl)cc1Cl [4-OH-PCB52]
IC50 (C6 cells; [6]): 2.2 µM
IC50 (rat primary astrocytes; [4]): 4.4 µM
IC50 (rat primary astrocytes; [5]): 4.9 µM
viability at 24 h, 1 µM ([1]; 1 μM): 150%
viability at 24 h, 5 µM [1]: ~0%

O=S(=O)(O)Oc1ccc(-c2cccc(Cl)c2)cc1Cl [PCB 11 sulfated metabolite]
IC50 (C6 cells; [3]): > 50 µM
